# Measured values as given in patent US10053485B2, “Cytotoxic agents that preferentially target leukemia inhibitory factor (LIF) for the treatment of malignancies and as new contraceptive agents” (Evestra, Inc., priority 2015, dated 2018).
# Tests used:
# COLO 205 = assay: NCI-60 screen, Colon Cancer panel; format: cell-based; details: Homo sapiens, COLO 205, 48 h
# HT29 = assay: NCI-60 screen, Colon Cancer panel; format: cell-based; details: Homo sapiens, HT-29, 48 h
# HCT-15 = assay: NCI-60 screen, Colon Cancer panel; format: cell-based; details: Homo sapiens, HCT-15, 48 h
# [1] = test system: SMAD phosphorylation (TGF-beta); assay: Phosphorylation of SMAD; details: through blocking TGF-beta
# PC-3 = assay: NCI-60 screen, Prostate Cancer panel; format: cell-based; details: Homo sapiens, PC-3, 48 h
# NCI-H522 = assay: NCI-60 screen, Non-Small Cell Lung Cancer panel; format: cell-based; details: Homo sapiens, NCI-H522, 48 h
# SK-MEL-5 = assay: NCI-60 screen, Melanoma panel; format: cell-based; details: Homo sapiens, SK-MEL-5, 48 h
# MDA-MB-435 = assay: NCI-60 screen, Melanoma panel; format: cell-based; details: Homo sapiens, MDA-MB-435, 48 h
# HOP-62 = assay: NCI-60 screen, Non-Small Cell Lung Cancer panel; format: cell-based; details: Homo sapiens, HOP-62, 48 h, read-out: GI50 (log10GI50) (converted)
# UACC-257 = assay: NCI-60 screen, Melanoma panel; format: cell-based; details: Homo sapiens, UACC-257, 48 h
# K-562 = assay: NCI-60 screen, Leukemia panel; format: cell-based; details: Homo sapiens, K562, 48 h
# [2] = test system: Ishikawa (Endometrial Cancer); assay: Short term (72 h) cytotoxicity assay; format: cell-based; details: Homo sapiens
# HS 578T = assay: NCI-60 screen, Breast Cancer panel; format: cell-based; details: Homo sapiens, 48 h
# OVCAR-8 = assay: NCI-60 screen, Ovarian Cancer panel; format: cell-based; details: Homo sapiens, OVCAR-8, 48 h
# SF-539 = assay: NCI-60 screen, CNS Cancer panel; format: cell-based; details: Homo sapiens, SF-539, 48 h
# [3] = test system: unmodified MCF-7 human breast cancer cells; assay: LIF specificity assay, unmodified cells; format: cell-based; details: Homo sapiens, MCF7, cytotoxicity
# 786-0 = assay: NCI-60 screen, Renal Cancer panel; format: cell-based; details: Homo sapiens, 786-0, 48 h
# [4] = test system: PC3 (AR− Prostate Cancer); assay: Short term (72 h) cytotoxicity assay; format: cell-based; details: Homo sapiens, PC3, 72 h cytotoxicity
# SN12C = assay: NCI-60 screen, Renal Cancer panel; format: cell-based; details: Homo sapiens, 48 h
# UACC-62 = assay: NCI-60 screen, Melanoma panel; format: cell-based; details: Homo sapiens, UACC-62, 48 h
# [5] = test system: various cancer cells lines; assay: Cytotoxicity assays in various cancer cell lines; format: cell-based; details: in words
# Method: Briefly, 5×10^3 cells were seeded in 96-well plates and incubated with compounds (0.0001-10 μmol/L) or dimethyl sulfoxide (DMSO; 0.02% v/v) for 24, 48, and 72 hours at 37° C. and cell viability was measured using a Fluoroscan plate reader.
# HCT-116 = assay: NCI-60 screen, Colon Cancer panel; format: cell-based; details: Homo sapiens, HCT-116, 48 h
# NCI/ADR-RES = assay: NCI-60 screen, Ovarian Cancer panel; format: cell-based; details: Homo sapiens, 48 h
# OVCAR-5 = assay: NCI-60 screen, Ovarian Cancer panel; format: cell-based; details: Homo sapiens, OVCAR-5, 48 h
# ACHN = assay: NCI-60 screen, Renal Cancer panel; format: cell-based; details: Homo sapiens, 48 h
# BT-549 = assay: NCI-60 screen, Breast Cancer panel; format: cell-based; details: Homo sapiens, BT-549, 48 h
# MDA-MB-231 (TNBC cells) = assay: Short term (72 h) cytotoxicity assay; format: cell-based; details: Homo sapiens; MDA-MB-231, 72 h cytotoxicity
# MOLT-4 = assay: NCI-60 screen, Leukemia panel; format: cell-based; details: Homo sapiens, MOLT-4, 48 h
# [6] = read-out: GI50 (log10GI50) (converted)
# [7] = read-out: LC50 (log10LC50) (converted)
smiles,measurement,setting,value
"C#CC(F)(F)[C@]1(O)CCC2C3CCC4=CC(=O)CCC4=C3C(c3ccc(C4CC4)cc3)C[C@@]21C (stereo partly drawn) [EC330, 17α-(1,1-difluoro-2-propyn-1-yl)-17β-hydroxy-11β-[4-p-(cyclopropyl)phenyl]estra-4,9-dien-3-one]",GI50,COLO 205; [6],0.794 µM
same,CC50,COLO 205; [7],8.91 µM
same,GI50,HT29; [6],< 0.01 µM
same,CC50,HT29; [7],0.692 µM
same,GI50,HCT-15; [6],1.48 µM
same,CC50,HCT-15; [7],> 100 µM
same,phosphorylation of SMAD,[1],indirectly diminish the phosphorylation of SMAD
same,GI50,PC-3; [6],0.513 µM
same,CC50,PC-3; [7],> 100 µM
same,GI50,NCI-H522; [6],< 0.01 µM
same,CC50,NCI-H522; [7],< 0.01 µM
same,GI50,SK-MEL-5; [6],4.68 µM
same,CC50,SK-MEL-5; [7],43.7 µM
same,GI50,MDA-MB-435; [6],1.86 µM
same,CC50,MDA-MB-435; [7],> 100 µM
same,GI50,HOP-62,0.0141 µM
same,GI50,UACC-257; [6],7.08 µM
same,CC50,UACC-257; [7],> 100 µM
same,GI50,K-562; [6],2.19 µM
same,CC50,K-562; [7],> 100 µM
same,IC50,[2],0.005 µM
same,GI50,HS 578T; [6],2.29 µM
same,CC50,HS 578T; [7],> 100 µM
same,GI50,OVCAR-8; [6],1.55 µM
same,CC50,OVCAR-8; [7],> 100 µM
same,GI50,SF-539; [6],< 0.01 µM
same,CC50,SF-539; [7],0.0525 µM
same,IC50,[3],0.25 µM
same,GI50,786-0; [6],< 0.01 µM
same,CC50,786-0; [7],< 0.01 µM
same,IC50,[4],0.03 µM
same,GI50,SN12C; [6],3.8 µM
same,CC50,SN12C; [7],> 100 µM
same,GI50,UACC-62; [6],1.95 µM
same,CC50,UACC-62; [7],> 100 µM
same,IC50's in cytotoxicity assays,[5],low nanomolar
same,GI50,HCT-116; [6],2.82 µM
same,CC50,HCT-116; [7],> 100 µM
same,GI50,NCI/ADR-RES; [6],0.0257 µM
same,CC50,NCI/ADR-RES; [7],> 100 µM
same,GI50,OVCAR-5; [6],1.07 µM
same,CC50,OVCAR-5; [7],> 100 µM
same,GI50,ACHN; [6],1.51 µM
same,CC50,ACHN; [7],> 100 µM
same,GI50,BT-549; [6],2.09 µM
same,CC50,BT-549; [7],> 100 µM
same,IC50,MDA-MB-231 (TNBC cells),0.034 µM
same,GI50,MOLT-4; [6],1.7 µM
same,CC50,MOLT-4; [7],> 100 µM
